The text below walks through data of ChEMBL document CHEMBL1201862, “PubChem BioAssay data set” (2004).

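Dose response: 5 concentrations. Exposure: 48 h. Format: 96-well plates. Endpoint: linear interpolation; highest concentration if not reached. GI50: concentration for 50% inhibition of growth.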 Active and inactive are the calls of the source. No stated cut-off is given here; in the data, active = GI50 up to about 1.1 µM and inactive = higher. A value given as a limit tells only on which side of the number the result lay.

Among the test systems are SR; MDA-MB-435; SK-MEL-2; SN12C; HOP-92; SNB-75; 786-0; UO-31; A549; PC-3; NCI/ADR-RES; OVCAR-8; SF-268; SK-OV-3; RPMI-8226; TK-10; U-251; HCC 2998; HCT-15; A498.
Holding throughout (assay): DTP human tumour cell line panel, 48 h

Usually GI50 stands for the concentration at which growth is held to half of that of the control.

For `COc1cc(/C=C2\N=C(c3ccccc3)N(c3nc4cc(C)c(C)cc4s3)C2=O)ccc1O`, the GI50 in the assay on SR was 19.9 µM (inactive); in the assay with MDA-MB-435 it was 12.6 µM (inactive); with SK-MEL-2, 26.3 µM (inactive); in the assay with SN12C it was 25.8 µM (inactive); in the assay on HOP-92, 21.9 µM (inactive); in the assay on SNB-75, 24.9 µM (inactive). Further, the GI50 in the assay on 786-0 was 43 µM (inactive); with UO-31 it was 40.3 µM (inactive); in the assay with A549, 40.7 µM (inactive); in the assay on PC-3, 30.3 µM (inactive); in the assay on NCI/ADR-RES it was 42.3 µM (inactive); with OVCAR-8, 47.4 µM (inactive). Besides, the GI50 with SF-268 is 44.8 µM (inactive); with SK-OV-3, > 100 µM (inactive); in the assay on RPMI-8226, 20.8 µM (inactive); in the assay on TK-10, 79.4 µM (inactive); in the assay on U-251, 30.8 µM (inactive); in the assay with HCC 2998, 27 µM (inactive). In the assay with HCT-15, this molecule had a GI50 of 45.6 µM.

With `O=C1O/C(=C(/Br)c2ccc(Cl)c(Cl)c2)c2ccccc21`, the GI50 with SR, in the assay with MDA-MB-435, in the assay with SK-MEL-2, in the assay with SN12C, in the assay on HOP-92 and in the assay with SNB-75 was > 10 µM (inactive) in each case. In addition, the GI50 in the assay on 786-0, in the assay with UO-31, in the assay on A549, with PC-3, in the assay with NCI/ADR-RES and in the assay with OVCAR-8 was > 10 µM (inactive) throughout. The GI50 with SF-268, in the assay on SK-OV-3, in the assay on RPMI-8226, in the assay on TK-10, with U-251 and in the assay on HCC 2998 was > 10 µM (inactive) throughout. Besides, in the assay on HCT-15, the GI50 was > 10 µM.

In the case of `CC(C)Sc1nncc(/C(N)=N/O)n1`, the GI50 with SR was > 100 µM (inactive); in the assay with MDA-MB-435, > 100 µM (inactive); in the assay with SN12C, > 100 µM (inactive); in the assay on HOP-92, 92 µM (inactive); in the assay with SNB-75 it was > 100 µM (inactive); in the assay with A498 it was > 100 µM (inactive). Further, the GI50 with 786-0, with UO-31, in the assay with A549, with PC-3, with NCI/ADR-RES and in the assay with OVCAR-8 was > 100 µM (inactive) in each case. Moreover, the GI50 with SF-268, in the assay on SK-OV-3, in the assay on RPMI-8226, in the assay on TK-10, in the assay on U-251 and with HCC 2998 was > 100 µM (inactive) throughout. In the assay with HCT-15, the GI50 is > 100 µM.

Turning to `CCCCCCCCCCCCCCCCCCOCC(O)COP(=O)(O)OCC1OC(n2ccc(N)nc2=O)C(O)C1O` (stereo not drawn), the GI50 in the assay with SR is 17 µM (inactive); in the assay with MDA-MB-435, 45.4 µM (inactive); in the assay on SN12C, 36.6 µM (inactive); with HOP-92, 19.9 µM (inactive); in the assay on SNB-75, 13 µM (inactive); in the assay with A498 it was 11 µM (inactive). Further, the GI50 in the assay on 786-0 was 10.9 µM (inactive); in the assay on A549 it was 3.85 µM (inactive); in the assay on PC-3 it was 6.01 µM (inactive); in the assay with NCI/ADR-RES, 19.1 µM (inactive); in the assay with OVCAR-8, 6.31 µM (inactive); in the assay with SF-268, 16.9 µM (inactive). For the same molecule, the GI50 is 66.8 µM (inactive) in the assay with SK-OV-3; 24.9 µM (inactive) in the assay with RPMI-8226; 14.2 µM (inactive) with TK-10; 11.9 µM (inactive) in the assay on U-251; 22 µM (inactive) in the assay with HCC 2998; 15.5 µM in the assay on HCT-15.

With `Cc1cc(NS(=O)(=O)c2ccc(NC(=O)c3cccc4c(NNc5ccc(S(=O)(=O)N=C(N)N)cc5)c5ccccc5nc34)cc2)no1`, the GI50 in the assay on SR was 35.8 µM (inactive); with MDA-MB-435, 92.9 µM (inactive); in the assay with SK-MEL-2, 19.5 µM (inactive); in the assay with SN12C, 70.3 µM (inactive); with HOP-92 it was 17.3 µM (inactive); in the assay with SNB-75, 28.2 µM (inactive). Besides, the GI50 was > 100 µM (inactive) in the assay on 786-0; 54.2 µM (inactive) in the assay with UO-31; > 100 µM (inactive) in the assay on A549; 46.1 µM (inactive) with PC-3; > 100 µM (inactive) in the assay with NCI/ADR-RES; 51.1 µM (inactive) in the assay on OVCAR-8. The GI50 with SF-268 is 39 µM (inactive); with SK-OV-3 it was 54.2 µM (inactive); with RPMI-8226, 82 µM (inactive); in the assay with TK-10, > 100 µM (inactive); in the assay on U-251, 22.6 µM (inactive); in the assay on HCC 2998 it was 30.5 µM (inactive). The molecule also gave a GI50 in the assay with HCT-15 of 63.4 µM.

As to `O=C(NN1C(=O)c2ccccc2C1=O)c1ccccc1Nc1ccccc1C(=O)NN1C(=O)c2ccccc2C1=O`, the GI50 in the assay on SR, in the assay with MDA-MB-435, with SK-MEL-2, in the assay on SN12C, in the assay on HOP-92 and in the assay on SNB-75 was > 100 µM (inactive) each time. Further, the GI50 with 786-0, with UO-31, with PC-3, with NCI/ADR-RES, with OVCAR-8 and in the assay with SF-268 was > 100 µM (inactive) in each case. Moreover, the GI50 in the assay with RPMI-8226 is 49.2 µM (inactive); in the assay on TK-10, > 100 µM (inactive); with U-251, > 100 µM (inactive); in the assay with HCC 2998, > 100 µM (inactive); in the assay on HCT-15 it was > 100 µM.

Consider `O=C(CBr)N1CCC2(CC1)SSC1(CCN(C(=O)CBr)CC1)S2`, for which the concentration for 50% growth inhibition (GI50) is 0.178 µM (active) in the assay with SR; 2.12 µM (inactive) in the assay with MDA-MB-435; 1.93 µM (inactive) with SN12C; 2.1 µM (inactive) in the assay with HOP-92; 2.01 µM (inactive) in the assay on SNB-75; 0.614 µM (active) in the assay on 786-0. Moreover, the GI50 in the assay on UO-31 is 0.593 µM (active); in the assay with A549 it was 1.98 µM (inactive); in the assay on PC-3, 1.84 µM (inactive); in the assay on NCI/ADR-RES, 1.97 µM (inactive); with OVCAR-8 it was 1.93 µM (inactive); in the assay on SK-OV-3 it was 1.41 µM (inactive). For the same molecule, the GI50 was 0.356 µM (active) in the assay with RPMI-8226, 1.59 µM (inactive) in the assay with U-251 and 1.44 µM in the assay with HCT-15.

For the molecule `C=C(C)CNC(=S)N(N)c1ccc2ccccc2c1`, the GI50 in the assay on SR is > 100 µM (inactive); in the assay with MDA-MB-435 it was 72.3 µM (inactive); with SN12C, > 100 µM (inactive); with HOP-92, > 100 µM (inactive); in the assay with SNB-75, > 100 µM (inactive); with 786-0 it was > 100 µM (inactive). The GI50 with UO-31 is 61.1 µM (inactive); in the assay on A549 it was > 100 µM (inactive); in the assay with PC-3, 61.1 µM (inactive); with NCI/ADR-RES it was 78 µM (inactive); in the assay with OVCAR-8, > 100 µM (inactive); with SF-268, 78 µM (inactive). The GI50 was > 100 µM (inactive) in the assay with SK-OV-3; > 100 µM (inactive) in the assay on RPMI-8226; 23.6 µM (inactive) in the assay on TK-10; > 100 µM (inactive) with U-251; 47.3 µM (inactive) with HCC 2998; 5.01 µM with HCT-15.

`C(=C\c1cccs1)/c1cccc(/C=C/c2cccs2)n1`: the GI50 in the assay on SR was 32.4 µM (inactive); with MDA-MB-435, > 100 µM (inactive); in the assay with SK-MEL-2, > 100 µM (inactive); in the assay on SN12C it was 61 µM (inactive); in the assay on HOP-92, > 100 µM (inactive); in the assay with SNB-75, 19.3 µM (inactive). The GI50 with 786-0 is 35.3 µM (inactive); in the assay with UO-31, 30.3 µM (inactive); in the assay with A549, 60.7 µM (inactive); in the assay with PC-3, > 100 µM (inactive); with NCI/ADR-RES, > 100 µM (inactive); in the assay on OVCAR-8, 60.5 µM (inactive). Also, the GI50 with SF-268 was 2.61 µM (inactive); in the assay with SK-OV-3 it was > 100 µM (inactive); in the assay with RPMI-8226 it was > 100 µM (inactive); in the assay on TK-10, 34.9 µM (inactive); with U-251, 54.7 µM (inactive); with HCC 2998, 56.9 µM (inactive). Moreover, in the assay with HCT-15, the GI50 is > 100 µM.

Turning to `CC(=O)Nc1ccc(NNc2cc(=O)n(C)c(=O)[nH]2)cc1`, the GI50 with SR was 3.47 µM (inactive); in the assay with MDA-MB-435, 10.3 µM (inactive); with SN12C, 10.1 µM (inactive); with HOP-92, 2 µM (inactive); in the assay on A498, 23.2 µM (inactive); with 786-0 it was 2.71 µM (inactive). The GI50 with UO-31 is 17.2 µM (inactive); in the assay on A549, 19 µM (inactive); in the assay with PC-3, 4 µM (inactive); in the assay with NCI/ADR-RES, 16.7 µM (inactive); with OVCAR-8 it was 15.9 µM (inactive); with RPMI-8226, 2.84 µM (inactive). Moreover, the GI50 in the assay with TK-10 was 23.2 µM (inactive); with U-251, 11.7 µM (inactive); with HCC 2998, 11.4 µM (inactive); in the assay with HCT-15, 8.55 µM.

With `CC(=O)OCc1cncn1S(=O)(=O)c1ccc(C)cc1`, the GI50 with SR is 11.4 µM (inactive); in the assay with MDA-MB-435, 10.4 µM (inactive); in the assay with SK-MEL-2 it was > 100 µM (inactive); in the assay with SN12C it was > 91.2 µM (inactive); with HOP-92, > 100 µM (inactive); in the assay on SNB-75 it was > 100 µM (inactive). The GI50 was > 100 µM (inactive) in the assay on 786-0; > 100 µM (inactive) in the assay with UO-31; > 100 µM (inactive) in the assay on A549; > 100 µM (inactive) with PC-3; > 55.5 µM (inactive) with NCI/ADR-RES; > 91.4 µM (inactive) in the assay with OVCAR-8. For the same molecule, the GI50 is > 100 µM (inactive) with SF-268; > 100 µM (inactive) in the assay on SK-OV-3; 35 µM (inactive) in the assay with RPMI-8226; > 100 µM (inactive) in the assay with TK-10; > 87.7 µM (inactive) with U-251; > 62.4 µM (inactive) in the assay with HCC 2998. The GI50 with HCT-15 is 20.3 µM.
